Data reported in US20150307461A1, “ANTIVIRAL COMPOUNDS” (priority 2012, published 2015).

Key:
Experiment in all cases: microbe, parasite or virus in culture
[1] = system: Pseudotyped HCV GT1a particles (HCVpp); type: cell-based, HCV GT1a H77 strain; conditions: Hepatitis C virus, 72 h, read-out: HCVpp GT-1a (EC50, μM)
[2] = system: Pseudotyped HCV GT1b particles (HCVpp); type: cell-based, HCV GT1b Con1 strain; conditions: Hepatitis C virus, 72 h, read-out: HCVpp GT-1b (EC50, μM)
[3] = system: pseudotyped VSV G particles (VSVpp); type: cell-based; conditions: Vesicular stomatitis virus, 72 h, read-out: VSVpp (EC50, μM)

Row | SMILES | EC50 [1] [µM] | EC50 [2] [µM] | EC50 [3] [µM]
1 | Nc1nc(Nc2cc(F)cc(S(F)(F)(F)(F)F)c2)n[nH]1 [Compound I-73, N*3*-(3-Fluoro-5-pentafluorosulfur-phenyl)-1H-[1,2,4]triazole-3,5-diamine] | 0.035 | 0.188 | 100
2 | CC(C)(C)C#Cc1c(Cl)cc(Nc2n[nH]c(N)n2)cc1Cl [Compound I-79, N^3-[3,5-Dichloro-4-(3,3-dimethyl-but-1-ynyl)-phenyl]-1H-[1,2,4]triazole-3,5-diamine] | 0.051 | 3.31 | 66
3 | CC(C)(C)C#Cc1ccc(Nc2n[nH]c(N)n2)cc1Cl [Compound I-80, N^3-[3-Chloro-4-(3,3-dimethyl-but-1-ynyl)-phenyl]-1H-[1,2,4]triazole-3,5-diamine] | 1.12 | 11.2 | 91.6
4 | Nc1nc(Nc2cc(F)c(Br)c(S(F)(F)(F)(F)F)c2)n[nH]1 [Compound I-83, N*3*-(4-Bromo-3-fluoro-5-pentafluorosulfur-phenyl)-1H-[1,2,4]triazole-3,5-diamine] | 0.076 | 0.17 | 32.5
